Laboratory results from PMC4499133, “ATP-dependent motor activity of the transcription termination factor Rho from Mycobacterium tuberculosis” (Nucleic Acids Research, 2015).

Molecular target: T1, MtbRho (transcription termination factor Rho) (Mycobacterium tuberculosis, UniProt P9WHF3)
T1 construct: WT MtbRho, N-terminal His tag, hexamer
Assay: biochemical

T1 sequence (P9WHF3 whole entry): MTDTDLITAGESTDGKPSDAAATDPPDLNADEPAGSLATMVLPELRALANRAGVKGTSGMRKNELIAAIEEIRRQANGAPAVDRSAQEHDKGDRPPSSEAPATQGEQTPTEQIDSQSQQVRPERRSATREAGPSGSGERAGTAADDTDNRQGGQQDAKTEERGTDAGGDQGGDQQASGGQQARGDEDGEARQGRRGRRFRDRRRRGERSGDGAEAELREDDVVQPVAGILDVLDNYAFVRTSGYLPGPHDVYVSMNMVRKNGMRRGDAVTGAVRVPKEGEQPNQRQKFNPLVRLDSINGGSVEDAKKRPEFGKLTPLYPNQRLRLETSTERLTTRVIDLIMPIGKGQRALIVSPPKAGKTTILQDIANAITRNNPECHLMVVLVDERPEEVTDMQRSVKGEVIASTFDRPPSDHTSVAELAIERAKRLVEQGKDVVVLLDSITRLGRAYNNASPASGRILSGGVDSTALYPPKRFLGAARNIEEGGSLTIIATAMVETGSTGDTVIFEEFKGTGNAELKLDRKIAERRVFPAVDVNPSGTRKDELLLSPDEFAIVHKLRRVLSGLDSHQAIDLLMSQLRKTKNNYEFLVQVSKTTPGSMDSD

SMILES: C=C1CCO[C@]2([C@@H](O)[C@@](C)(O)CO)NC(=O)[C@@]1(O)NC2=O [BCM, bicyclomycin]
- IC50: 157 ± 20 µM
